Measurements published in paper PMC5660723, “Histone Deacetylase Inhibitors Are Protective in Acute but Not in Chronic Models of Ototoxicity” (Frontiers in Cellular Neuroscience, 2017).

Legend:
[1] = system: outer hair cells (OHCs) of p3 murine organ of Corti explants; assay: Protection against gentamicin-induced OHC loss in murine organ of Corti explants; assay type: cell-based, CBA/J mice; details: for concentration at which protection from GM-induced OHC loss begins / concentration that completely prevents GM-induced OHC loss / ED50 (median effective protective dose): 4.5 μM GM; for ED50 (median effective protective dose): 72 h co-incubation, p3 murine explants
Excerpt: (§1) The culture procedures have been described in detail (Chen et al., [2009]). In brief, postnatal day 3 (p3) CBA/J pups were euthanized after antisepsis using 70% ethanol. Inner ears were extracted from surrounding tissue and immersed in cold Hank’s balanced salt solution. The lateral wall tissues (stria vascularis and spiral ligament) and the auditory nerve bundle were micro-dissected from the organ of Corti. The explants were placed onto a prepared culture dish containing a 15-μL polymerized drop of rat tail collagen in 1 mL of culture medium consisting of Basal Medium Eagle, 1% serum-free supplement (Invitrogen, Carlsbad, CA, USA), 1% bovine serum albumin, 5 mg/mL glucose, and 10 U/mL penicillin G. After 4 h of incubation (37°C, 5% CO2), an additional 1 mL of medium was added to submerge the explants.
(§2) The medium was then exchanged for new medium containing a final concentration of 4.5 μM GM with or without various concentrations of the HDAC inhibitors and incubated for 72 h. The stock solutions with 95 mM of SAHA/vorinostat (Cayman Chemical, Ann Arbor, MI, USA), 100 mM of belinostat (Selleckchem, Houson, TX, USA), and 100 mM of panobinostat (Cayman Chemical), were dissolved in 100% dimethyl sulfoxide (DMSO) and stored at −20°C. GM solution was made fresh from powder in culture medium at 0.2 mM and then diluted to the final concentration for each experiment.
(§3) Explants were fixed with 4% paraformaldehyde overnight at 4°C and permeabilized for 30 min with 3% Triton X-100 in phosphate-buffered saline (PBS) at room temperature (22–24°C). The specimens were then washed three times with PBS and incubated with rhodamine-phalloidin (Invitrogen) at a 1:100 dilution for 60 min at room temperature (22–24°C). After rinsing in PBS, the specimens were mounted on a slide with Gel-Mount™ (BioMeda Corp., Foster City, CA, USA). The phalloidin-stained stereociliary bundles and circumferential F-actin rings on the cuticular plate of OHCs allowed the determination of cells that were present or missing. A clear “V” shape of stereocilia indicates the presence of OHCs. If the “V” shape is not visualized, we accept this as a damaged hair cells. Cell populations were assessed on a Leitz Orthoplan upright microscope equipped for epifluorescence, using a 50× oil-immersion objective. […] Each successive 0.19-mm field was evaluated for the absence of OHCs beginning from the apex and moving down the organ of Corti to the base. The percentage of OHC loss was calculated.
After having established the safe concentration range for the HDAC inhibitors, we explored their efficacy as protective agents against GM-induced OHC loss. […] From the assessment of safe doses and the median effective (protective) doses (ED50) of the three HDAC inhibitors, we calculated the therapeutic index (TI = TD50/ED50) to be highest (safest) for belinostat and lowest for panobinostat (for detailed values see Table 2).

[2] = Guinea pig tolerability, serum platelet, BUN and creatinine levels; assay type: in vivo, guinea pigs; details: for BUN / Cr: in mg/dL (unit assumed)
Description: Pigmented male guinea pigs initially weighing 200–250 g from Charles River were used in the in-vivo study. Experiments were begun 1 week after the guinea pigs arrived. To select safe doses of SAHA for protective studies, we conducted two separate sets of experiments to assess serum platelet concentrations. In the first set, pigmented guinea pigs received daily IP injections of SAHA at lower doses (LD; 2 mg/kg and 5 mg/kg) concurrent with SQ injections of 120 mg GM base/kg body weight daily for 2 weeks. In the second study, the higher doses (HD) of SAHA (15 mg/kg and 25 mg/kg) were used. The DMSO concentration was 1.1 g/kg, equal to the DMSO concentration used for the 25 mg/kg concentration of SAHA. […] We then tested the protective ability of SAHA at LD (2 mg/kg and 5 mg/kg) and at HD of SAHA (15 mg/kg and 25 mg/kg) against GM-induced hearing loss concurrent with daily SQ injections of GM (dissolved in saline) at 120 mg base/kg for 14 days. SAHA was dissolved in 100% DMSO for stock solutions of 25 mg/mL and diluted with saline immediately before IP injections. All compound solutions were filtered with syringe filters before injection. Body weights were measured before each injection. If a guinea pig lost ~5% of its body weight, an additional 3–4 mL of saline was administrated subcutaneously.
Blood was obtained by nail clipping after light anesthesia of the guinea pigs by metofane inhalation after the last drug injections. Blood cells were separated by centrifugation at 1000× g for 15 min, and sera were stored at −20°C. Blood urea nitrogen (BUN), creatinine and platelet concentrations were determined using a Kodak Ektachem700XR Clinical Chemistry Analyzer (Clinical Products Division, Eastman Kodak, Rochester, NY, USA) and analyzed by Dr. Donald Giacherio, Chemical Pathology Laboratory, University of Michigan.
While the CBA/J mouse is a well-established model for chronic KM-induced ototoxicity, we wished to ascertain whether the lack of protection by SAHA might be species-dependent. We therefore tested if SAHA treatment had protective effects against GM-induced hearing loss in guinea pigs. To find safe doses to be used in guinea pigs in vivo, we first assessed serum platelet concentrations. Guinea pigs tolerated injections of SAHA at all concentrations of 5–25 mg/kg body weight concurrent with SQ injections of 120 mg GM base/kg body weight daily for 2 weeks with normal appearing fur and steadily increasing body weight. Blood samples were collected after the last injection.

pigmented guinea pigs = assay: Gentamicin-induced ototoxicity in guinea pigs in vivo (ABR threshold shifts, OHC counts), chronic model; details: for effect on GM-induced auditory threshold shifts: SAHA IP LD 2–5 mg/kg or HD 15–25 mg/kg with GM 120 mg base/kg daily for 2 weeks
Description: Pigmented male guinea pigs initially weighing 200–250 g from Charles River were used in the in-vivo study. Experiments were begun 1 week after the guinea pigs arrived. To select safe doses of SAHA for protective studies, we conducted two separate sets of experiments to assess serum platelet concentrations. […] In the second study, the higher doses (HD) of SAHA (15 mg/kg and 25 mg/kg) were used. The DMSO concentration was 1.1 g/kg, equal to the DMSO concentration used for the 25 mg/kg concentration of SAHA. […] SAHA was dissolved in 100% DMSO for stock solutions of 25 mg/mL and diluted with saline immediately before IP injections. All compound solutions were filtered with syringe filters before injection. Body weights were measured before each injection. If a guinea pig lost ~5% of its body weight, an additional 3–4 mL of saline was administrated subcutaneously.
The procedures for surface preparations of guinea pig cochlear epithelia were followed as previously described (Sha and Schacht, [1999b]). After the last auditory brain stem response (ABR) measurement, guinea pigs from the second group of experiments were deeply anesthetized in a CO2 chamber and decapitated. Cochleae were immediately removed and perfused with 4% paraformaldehyde in PBS at pH 7.4 and fixed overnight at 4°C. Micro-dissected surface preparations of the organ of Corti were permeabilized for 30 min with 0.5% Triton X-100 in PBS at room temperature (22–24°C) and stained with rhodamine phalloidin (Invitrogen) at a 1:100 dilution for 60 min at room temperature (22–24°C). After rinsing in PBS, the specimens were mounted on a slide with Gel-Mount™ (BioMeda Corp.). OHC counts were conducted with microscopy as described above for mice.
ABRs were measured 3 days before and 3 weeks after drug treatments. Animals were anesthetized with IP injections of ketamine (100 mg/kg) and xylazine (10 mg/kg) for mice or ketamine (58.8 mg/kg), xylazine (2.4 mg/kg), and acepromazine (1.2 mg/kg) for guinea pigs. Body temperature was maintained near 37°C with a heating pad. ABRs were measured at 12 and 32 kHz for guinea pigs or 8, 16, and 32 kHz for mice in a sound-isolated and electrically shielded booth (Acoustic Systems, Austin, TX, USA). Sub-dermal electrodes were inserted at the vertex of the skull, under the left ear and under the right ear (ground). […] Thresholds (the lowest stimulus level with a reproducible response) were determined by reducing the intensity in 10-dB steps and then in 5-dB steps approaching the threshold until no organized response was detected. Thresholds were evaluated based on ABR wave I. Scores were given by an expert blinded to experimental conditions between the highest stimulus level without a response and the lowest stimulus level where an organized response was observed. […]

CBA/J mice = assay: Kanamycin-induced hearing loss in CBA/J mice in vivo (ABR threshold shifts), chronic model; details: for auditory threshold shift (ABR), average: KM 700 mg base/kg SQ twice daily for 15 days
Description: Male CBA/J mice at the age of 5 weeks received subcutaneous (SQ) injections of KM at 700 mg base/kg (dissolved in saline) twice per day (AM and PM). SAHA for administration was dissolved in 100% DMSO for stock solutions of 50 mg/mL and diluted with saline immediately before intraperitoneal (IP) injection, for a final dose of 50 mg/kg, given twice per day for 15 days. The concentration of DMSO vehicle control was 1 mL/kg body weight. All solutions were filtered with a syringe filter before injection. Body weight was measured before each injection.
ABRs were measured 3 days before and 3 weeks after drug treatments. Animals were anesthetized with IP injections of ketamine (100 mg/kg) and xylazine (10 mg/kg) for mice or ketamine (58.8 mg/kg), xylazine (2.4 mg/kg), and acepromazine (1.2 mg/kg) for guinea pigs. Body temperature was maintained near 37°C with a heating pad. ABRs were measured at 12 and 32 kHz for guinea pigs or 8, 16, and 32 kHz for mice in a sound-isolated and electrically shielded booth (Acoustic Systems, Austin, TX, USA). Sub-dermal electrodes were inserted at the vertex of the skull, under the left ear and under the right ear (ground). Tucker Davis Technology System III hardware and SigGen/Biosig software were used to present the stimuli monaurally (15 ms duration tone bursts with 1 ms rise-fall time) through a Beyer earphone attached to a customized plastic speculum inserted into the ear canal. Up to 1024 responses were averaged for each stimulus level. Thresholds (the lowest stimulus level with a reproducible response) were determined by reducing the intensity in 10-dB steps and then in 5-dB steps approaching the threshold until no organized response was detected. Thresholds were evaluated based on ABR wave I. Scores were given by an expert blinded to experimental conditions between the highest stimulus level without a response and the lowest stimulus level where an organized response was observed. All ABR measurements were conducted by the same experimenter. […]

[3] = system: outer hair cells (OHCs) of p3 murine organ of Corti explants; assay: Toxicity of HDAC inhibitors in murine cochlear explants (OHC loss by hair cell counts); assay type: cell-based, CBA/J mice; details: for loss of OHCs: 72 h; for concentration at which changes in orientation of stereociliary bundles of basal-turn OHCs begin / TD50 (median toxic dose, concentration leading to 50% OHC loss): 72 h incubation; for TD50 (median toxic dose, concentration leading to 50% OHC loss): p3 murine explants
Excerpt: as §1, §2, §3
In order to evaluate the protective potential of the three HDAC inhibitors on aminoglycoside-induced ototoxicity, we first determined their safety on auditory sensory hair cells using p3 murine organ of Corti explants. Explants were incubated for 2 days for recovery from the stress of dissection, followed by 72 h of incubation with or without inhibitors. Toxic effects were assessed by OHC loss. […] OHCs in the basal turn show changes in the orientation of the stereociliary bundles beginning with concentrations of 4 μM for SAHA, 3 μM for belinostat, and 20 nM for panobinostat.

mice [4] = details: systemic SAHA, cited from earlier work
mice [5] = system: mice; design: method as in Layman et al., 2015; details: 100 mg/kg/day for 2 weeks, ref Layman et al., 2015; cited from earlier work
[6] = cited from earlier work
[7] = system: hair cells in organotypic cultures of the cochlea; design: method as in Chen et al., 2009; details: ref Chen et al., 2009; cited from earlier work
guinea pigs = system: guinea pigs; design: method as in Wang et al., 2015; details: locally applied to the middle ear; ref Wang et al., 2015; cited from earlier work
[8] = GM + SAHA (HD: 15–25 mg/kg), n=5
[9] = SAHA alone (LD + HD; LD 2–5 mg/kg, HD 15–25 mg/kg), n=2

For `CNC(C)C1CCC(N)C(OC2C(N)CC(N)C(OC3OCC(C)(O)C(NC)C3O)C2O)O1` (centres unmarked) [GM, gentamicin], the “overall loss of OHCs” value ([1]; GM 4.5 μM with vehicle (DMSO) alone, 72 h, base-to-apex gradient) was 40%, the BUN ([2]; GM + DMSO, n=4) was 16 ± 4.5 and the Cr ([2]; GM + DMSO, n=4) was 0.5 ± 0.22. For the same compound, the “OHC loss in the basal turn” value (pigmented guinea pigs; GM 120 mg base/kg SQ daily for 2 weeks) was “significant OHC loss”.
For `NC[C@H]1O[C@H](O[C@H]2[C@H](O)[C@@H](O[C@H]3O[C@H](CO)[C@@H](O)[C@H](N)[C@H]3O)[C@H](N)C[C@@H]2N)[C@H](O)[C@@H](O)[C@@H]1O` [KM, kanamycin], the “auditory threshold shift (ABR), average” value (CBA/J mice; 16 kHz) was 55 dB and the “auditory threshold shift (ABR), average” value (CBA/J mice; 32 kHz) was 55 dB.
With `O=C(CCCCCCC(=O)Nc1ccccc1)NO` [SAHA, vorinostat] the “loss of OHCs” value ([3]; 8 μM) was 100%, the “concentration at which changes in orientation of stereociliary bundles of basal-turn OHCs begin” value (shortened to “concentration at which changes”) [3] was 4000 nM and the “TD50 (median toxic dose, concentration leading to 50% OHC loss)” value [3] was 5.5 µM. For the same compound, the “concentration at which protection from GM-induced OHC loss begins” value ([1]; 72 h) was 0.5 µM, the “concentration that completely prevents GM-induced OHC loss” value ([1]; 72 h) was 2 µM and the “ED50 (median effective protective dose)” value [1] was 600 nM. The “effect on KM-induced auditory threshold shifts” value (CBA/J mice; SAHA 50 mg/kg IP twice daily for 15 days with KM 700 mg base/kg twice daily) was “did not attenuate”, the BUN [2, 8] was 17 ± 3.2 and the Cr [2, 8] was 0.4 ± 0.08. For the same compound, the BUN ([2]; GM + SAHA (LD: 2–5 mg/kg), n=6) was 17 ± 1.7, the Cr ([2]; GM + SAHA (LD: 2–5 mg/kg), n=6) was 0.4 ± 0.06 and the “platelet concentration compared to GM alone” value ([2]; SAHA 25 mg/kg IP daily with 120 mg GM base/kg SQ for 2 weeks) was “significantly lower”. For the same compound, the “tolerability (fur appearance, body weight)” value ([2]; SAHA 5–25 mg/kg with 120 mg GM base/kg SQ daily for 2 weeks) was “tolerated”, the BUN [2, 9] was 17.5 ± 0.7 and the Cr [2, 9] was 0.5 ± 0.007. The “effect on GM-induced auditory threshold shifts” value (pigmented guinea pigs; 12 kHz) was “did not attenuate”, the “effect on GM-induced auditory threshold shifts” value (pigmented guinea pigs; 32 kHz) was “did not attenuate” and the “effect on GM-induced loss of OHCs” value (pigmented guinea pigs; SAHA IP with GM 120 mg base/kg daily for 2 weeks) was “did not attenuate”. For the same compound, the “effect on trauma of exposure to excessive noise” value (mice [4]; ref Chen et al., 2016) was “attenuated”, the “effect on acute effects of the ototoxic combination of KM and furosemide” value (mice [4]; ref Layman et al., 2015) was “attenuated” and the ototoxicity (mice [5]) was “no ototoxicity”. For the same compound, the blood-brain barrier penetration ([6]; mouse model of Huntington’s disease, ref Hockly et al., 2003) was “crosses the blood-brain barrier” and the “blood-labyrinth barrier / inner ear penetration” value ([6]; mouse, IP injection, ref Layman et al., 2015) was “crosses the blood-labyrinth barrier”.
With `O=C(/C=C/c1cccc(S(=O)(=O)Nc2ccccc2)c1)NO` [belinostat] the “loss of OHCs” value ([3]; 5 μM) was 100%, the “concentration at which changes” value [3] was 3000 nM and the “TD50 (median toxic dose, concentration leading to 50% OHC loss)” value [3] was 3.5 µM. The “concentration at which protection from GM-induced OHC loss begins” value ([1]; 72 h) was 0.1 µM, the “concentration that completely prevents GM-induced OHC loss” value ([1]; 72 h) was 0.4 µM and the “ED50 (median effective protective dose)” value [1] was 50 nM.
In the case of `CCCC(=O)O` [butyrate, sodium butyrate], the “effect on hair cells under GM-induced damage” value [7] is given as “rescued hair cells” and the “protection of guinea pigs in vivo” value (guinea pigs) is given as “protected”.
In the case of `Cc1[nH]c2ccccc2c1CCNCc1ccc(/C=C/C(=O)NO)cc1` [panobinostat], the “loss of OHCs” value ([3]; 50 nM) is reported as 100%, the “concentration at which changes” value [3] is reported as 20 nM and the “TD50 (median toxic dose, concentration leading to 50% OHC loss)” value [3] is reported as 0.035 µM. For the same compound, the “concentration at which protection from GM-induced OHC loss begins” value ([1]; 72 h) was 0.005 µM, the “concentration that completely prevents GM-induced OHC loss” value ([1]; 72 h) was 0.015 µM and the “ED50 (median effective protective dose)” value [1] was 9 nM.
For `CC(/C=C/C(=O)NO)=C\[C@@H](C)C(=O)c1ccc(N(C)C)cc1` [trichostatin A], the “effect on hair cells under GM-induced damage” value [7] is given as “rescued hair cells”.
